Data set [1] can be described thus: Maximum additive concentration (MAC) and degree of synergistic solubilisation in aqueous P407+P188 mixtures. It counts as physicochemical. The protocol: The maximum additive concentration (MAC) and degree of synergistic solubilisation was determined for a selection of water insoluble and sparingly soluble actives in aqueous P407+P188 mixtures.
For each active, the MAC was determined in the following aqueous poloxamer solutions:
As an aid to evaluating the level of synergistic solubilisation present within the system, the experimental data given in FIGS. 1-3 also includes the calculated MAC's of the systems that would be expected if the poloxamers comprising the mixture were solubilising independently and the overall MAC were simply the sum of the individual MAC's for the two components or admixture.

The conditions of data set [2]: cited from earlier work.
[3] abbreviates: 3% w/v P407 + 7% w/v P188 in water.
Setting [4] is: 7% w/v P407 + 3% w/v P188 in water.

The structures appear in SMILES notation. Like-named read-outs stand apart in the source and are kept apart here.

As to `Cc1ccc(C(C)C)cc1O` [Carvacrol, 2-methyl-5-(1-methylethyl)phenol], the figures for the “synergistic ratio, MACexperimental/MACadmixture” value in data set [1] (setting [3]) and in data set [1] (setting [4]) were 2.1 and 1.8, respectively.

Turning to `CCCCCCCCCC(=O)OCCN1CCN(CCCN2c3ccccc3Sc3ccc(C(F)(F)F)cc32)CC1` [Fluphenazine decanoate, 2-{4-[3-(2-trifluoromethyl-phenothiazin-10-yl)propyl]piperazin-1-yl}ethyl decanoate], the “synergistic ratio, MACexperimental/MACadmixture” value is 3.6 in data set [1] (setting [3]) and 1.6 in data set [1] (setting [4]).

With `CCCCCCC(=O)OCCN1CCN(CCCN2c3ccccc3Sc3ccc(C(F)(F)F)cc32)CC1` [Fluphenazine enanthate, 2-{4-[3-(2-trifluoromethylphenothiazin-10-yl)propyl]piperazin-1-yl}ethyl heptanoate], the “synergistic ratio, MACexperimental/MACadmixture” value came out at 2.5 in data set [1] (setting [3]) and 1.8 in data set [1] (setting [4]).

For the compound `CCN(CC)CC(=O)Nc1c(C)cccc1C` [Lidocaine, 2-diethylamino-2′,6′-acetoxylidide], the “synergistic ratio, MACexperimental/MACadmixture” value in data set [1] (setting [3]) is 1.5; in data set [1] (setting [4]), 1.4.

As to `CN1C(=O)CN=C(c2ccccc2)c2cc(Cl)ccc21` [diazepam], the “incidence of pain on injection” value in data set [2] (formulated in a mixture of propylene glycol and water) is listed as 37%; in data set [2] (formulated in an emulsion form), 0%.

The record behind these values is patent US8460644B2, “Synergistic mixed poloxamer systems for the solubilisation of drugs” (IS Pharmaceuticals Limited, priority 2001, dated 2013).
